Data on 20 compounds can be found in patent publication US11542274B1, “Therapeutic compounds and methods of use thereof” (AGENCY FOR SCIENCE, TECHNOLOGY AND RESEARCH (A*STAR), priority 2019, dated 2023).

The assay concerns RAMOS cells (Burkitt's lymphoma cell line). Nature of the assay: Anti-proliferation assay (CellTiter-Glo). Type of assay: cell-based. The note with it: Homo sapiens, 72 h, 3 days. The method, then:
In cell growth experiments, cells were seeded in 96-well cell culture plates at a density of 3000 of RAMOS cells/well in 100 μL of culture medium. 100 μL of the diluted solution containing the tested compound was added to the appropriate wells of the cell plate. After addition of the tested compound, the cells were incubated at 37° C. in an atmosphere of 5% CO2 for 3 days. CellTiter-Glo (CTG) reagent from the Promega CellTiter-Glo Luminescent Cell Viability Assay kit (#G7572) was added into an OptiPlate 96 (Perkin Elmer, White, Opaque, #6005299) in the dark, incubated for at least 2 hrs, and luminescence signal was read using Tecan Safire II Multi-Mode Plate Reader. The GI50 was calculated by nonlinear regression analysis using GraphPad Prism5 software.
GI50 is the concentration for 50% of maximal inhibition of cell proliferation.

With `Cc1sc2c(c1C)C(c1ccc(Cl)cc1)=N[C@@H](CC(=O)Nc1ccc(OCCOCCOCCOCCNc3ccc(-c4ccc5c(c4)CC(=O)N5)cc3)cc1)c1nnc(C)n1-2` [Compound 104, (S)-2-(4-(4-chlorophenyl)-2,3,9-trimethyl-6H-thieno[3,2-f][1,2,4]triazolo[4,3-a][1,4]diazepin-6-yl)-N-(4-(2-(2-(2-(2-((4-(2-oxoindolin-5-yl)phenyl)amino)ethoxy)ethoxy)ethoxy)ethoxy)phenyl)acetamide], the GI50 fell in the range of 0.001 to 0.1 µM.
Then `Cc1sc2c(c1C)C(c1ccc(Cl)cc1)=N[C@@H](CC(=O)NCCCCCNc1ncccc1-c1ccc3c(c1)CC(=O)N3)c1nnc(C)n1-2` [Compound 105, (S)-2-(4-(4-chlorophenyl)-2,3,9-trimethyl-6H-thieno[3,2-f][1,2,4]triazolo[4,3-a][1,4]diazepin-6-yl)-N-(5-((3-(2-oxoindolin-5-yl)pyridin-2-yl)amino)pentyl)acetamide], with 0.001 to 0.1 µM; and `Cc1sc2c(c1C)C(c1ccc(Cl)cc1)=N[C@@H](CC(=O)Nc1ccc(OCCOCCNC(=O)c3cccc(-c4ccc5c(c4)CC(=O)N5)c3)cc1)c1nnc(C)n1-2` [Compound 106, (S)—N-(2-(2-(4-(2-(4-(4-chlorophenyl)-2,3,9-trimethyl-6H-thieno[3,2-f][1,2,4]triazolo[4,3-a][1,4]diazepin-6-yl)acetamido)phenoxy)ethoxy)ethyl)-3-(2-oxoindolin-5-yl)benzamide], with 0.001 to 0.1 µM; and `Cc1sc2c(c1C)C(c1ccc(Cl)cc1)=N[C@@H](CC(=O)NCCOCCOCCOCCNc1ncccc1-c1ccc3c(c1)CC(=O)N3)c1nnc(C)n1-2` [Compound 107, (S)-2-(4-(4-chlorophenyl)-2,3,9-trimethyl-6H-thieno[3,2-f][1,2,4]triazolo[4,3-a][1,4]diazepin-6-yl)-N-(2-(2-(2-(2-((3-(2-oxoindolin-5-yl)pyridin-2-yl)amino)ethoxy)ethoxy)ethoxy)ethyl)acetamide], with 0.001 to 0.1 µM.
Then `Cc1sc2c(c1C)C(c1ccc(Cl)cc1)=N[C@@H](CC(=O)NCCOCCOCCOCCNc1ncccc1-c1ccc3c(c1)NC(=O)C3)c1nnc(C)n1-2` [Compound 108, (S)-2-(4-(4-chlorophenyl)-2,3,9-trimethyl-6H-thieno[3,2-f][1,2,4]triazolo[4,3-a][1,4]diazepin-6-yl)-N-(2-(2-(2-(2-((3-(2-oxoindolin-6-yl)pyridin-2-yl)amino)ethoxy)ethoxy)ethoxy)ethyl)acetamide], with 0.1 to 1 µM; and `Cc1sc2c(c1C)C(c1ccc(Cl)cc1)=N[C@@H](CC(=O)NCCOCCOCCOCCC(=O)NC1CCN(C(=O)c3ccc4c(c3)CC(=O)N4)CC1)c1nnc(C)n1-2` [Compound 109, (S)-3-(2-(2-(2-(2-(4-(4-chlorophenyl)-2,3,9-trimethyl-6H-thieno[3,2-f][1,2,4]triazolo[4,3-a][1,4]diazepin-6-yl)acetamido)ethoxy)ethoxy)ethoxy)-N-(1-(2-oxoindoline-5-carbonyl)piperidin-4-yl)propanamide], with 0.001 to 0.1 µM.
`Cc1sc2c(c1C)C(c1ccc(Cl)cc1)=N[C@@H](CC(=O)NCCOCCOCCOCCC(=O)NC1CCN(C(=O)c3ccc4c(c3)NC(=O)C4)CC1)c1nnc(C)n1-2` [Compound 110, (S)-3-(2-(2-(2-(2-(4-(4-chlorophenyl)-2,3,9-trimethyl-6H-thieno[3,2-f][1,2,4]triazolo[4,3-a][1,4]diazepin-6-yl)acetamido)ethoxy)ethoxy)ethoxy)-N-(1-(2-oxoindoline-6-carbonyl)piperidin-4-yl)propanamide] yielded a GI50 greater than 1 µM.
`Cc1sc2c(c1C)C(c1ccc(Cl)cc1)=N[C@@H](CC(=O)NCCOCCOCCOCCC(=O)NC1CCCN(C(=O)c3ccc4c(c3)NC(=O)C4)C1)c1nnc(C)n1-2` (stereo partly drawn) [Compound 111, 3-(2-(2-(2-(2-((S)-4-(4-chlorophenyl)-2,3,9-trimethyl-6H-thieno[3,2-f][1,2,4]triazolo[4,3-a][1,4]diazepin-6-yl)acetamido)ethoxy)ethoxy)ethoxy)-N-(1-(2-oxoindoline-6-carbonyl)piperidin-3-yl)propanamide] registered a GI50 greater than 1 µM.
The result for `Cc1sc2c(c1C)C(c1ccc(Cl)cc1)=N[C@@H](CC(=O)NCCOCCOCCOCCC(=O)NC1CCCN(C(=O)c3ccc4c(c3)CC(=O)N4)C1)c1nnc(C)n1-2` (stereo partly drawn) [Compound 112, 3-(2-(2-(2-(2-((S)-4-(4-chlorophenyl)-2,3,9-trimethyl-6H-thieno[3,2-f][1,2,4]triazolo[4,3-a][1,4]diazepin-6-yl)acetamido)ethoxy)ethoxy)ethoxy)-N-(1-(2-oxoindoline-5-carbonyl)piperidin-3-yl)propanamide] reads 0.1 to 1 µM; that for `Cc1sc2c(c1C)C(c1ccc(Cl)cc1)=N[C@@H](CC(=O)NCCOCCOCCOCCNc1cc(-c3ccc4c(c3)NC(=O)C4)ccn1)c1nnc(C)n1-2` [Compound 113, (S)-2-(4-(4-chlorophenyl)-2,3,9-trimethyl-6H-thieno[3,2-f][1,2,4]triazolo[4,3-a][1,4]diazepin-6-yl)-N-(2-(2-(2-(2-((4-(2-oxoindolin-6-yl)pyridin-2-yl)amino)ethoxy)ethoxy)ethoxy)ethyl)acetamide], 0.1 to 1 µM; that for `Cc1sc2c(c1C)C(c1ccc(Cl)cc1)=N[C@@H](CC(=O)NCCOCCOCCOCCOCCNc1ccc(-c3ccc4c(c3)CC(=O)N4)cn1)c1nnc(C)n1-2` [Compound 114, (S)-2-(4-(4-chlorophenyl)-2,3,9-trimethyl-6H-thieno[3,2-f][1,2,4]triazolo[4,3-a][1,4]diazepin-6-yl)-N-(14-((5-(2-oxoindolin-5-yl)pyridin-2-yl)amino)-3,6,9,12-tetraoxatetradecyl)acetamide], 0.1 to 1 µM.
With `Cc1sc2c(c1C)C(c1ccc(Cl)cc1)=N[C@@H](CC(=O)NCCOCCOCCOCCOCCOCCNc1ccc(-c3ccc4c(c3)CC(=O)N4)cn1)c1nnc(C)n1-2` [Compound 115, (S)-2-(4-(4-chlorophenyl)-2,3,9-trimethyl-6H-thieno[3,2-f][1,2,4]triazolo[4,3-a][1,4]diazepin-6-yl)-N-(17-((5-(2-oxoindolin-5-yl)pyridin-2-yl)amino)-3,6,9,12,15-pentaoxaheptadecyl)acetamide], the GI50 was 0.1 to 1 µM.
The result for `Cc1sc2c(c1C)C(c1ccc(Cl)cc1)=N[C@@H](CC(=O)NCCOCCOCCNc1ccc(-c3ccc4c(c3)CC(=O)N4)cn1)c1nnc(C)n1-2` [Compound 116, (S)-2-(4-(4-chlorophenyl)-2,3,9-trimethyl-6H-thieno[3,2-f][1,2,4]triazolo[4,3-a][1,4]diazepin-6-yl)-N-(2-(2-(2-((5-(2-oxoindolin-5-yl)pyridin-2-yl)amino)ethoxy)ethoxy)ethyl)acetamide] reads 0.001 to 0.1 µM; that for `Cc1sc2c(c1C)C(c1ccc(Cl)cc1)=N[C@@H](CC(=O)NCCOCCNc1ccc(-c3ccc4c(c3)CC(=O)N4)cn1)c1nnc(C)n1-2` [Compound 117, (S)-2-(4-(4-chlorophenyl)-2,3,9-trimethyl-6H-thieno[3,2-f][1,2,4]triazolo[4,3-a][1,4]diazepin-6-yl)-N-(2-(2-((5-(2-oxoindolin-5-yl)pyridin-2-yl)amino)ethoxy)ethyl)acetamide], 0.001 to 0.1 µM.
For the compound `Cc1sc2c(c1C)C(c1ccc(Cl)cc1)=N[C@@H](CC(=O)Nc1ccc(OCCOCCOCCNc3ccc(-c4ccc5c(c4)CC(=O)N5)cn3)cc1)c1nnc(C)n1-2` [Compound 118, (S)-2-(4-(4-chlorophenyl)-2,3,9-trimethyl-6H-thieno[3,2-f][1,2,4]triazolo[4,3-a][1,4]diazepin-6-yl)-N-(4-(2-(2-(2-((5-(2-oxoindolin-5-yl)pyridin-2-yl)amino)ethoxy)ethoxy)ethoxy)phenyl)acetamide], the concentration for 50% growth inhibition (GI50) fell in the range of 0.1 to 1 µM.
The result for `Cc1sc2c(c1C)C(c1ccc(Cl)cc1)=N[C@@H](CC(=O)N1CCN(c3ccc(-c4ccc5c(c4)CC(=O)N5)cn3)CC1)c1nnc(C)n1-2` [Compound 119, (S)-5-(6-(4-(2-(4-(4-chlorophenyl)-2,3,9-trimethyl-6H-thieno[3,2-f][1,2,4]triazolo[4,3-a][1,4]diazepin-6-yl)acetyl)piperazin-1-yl)pyridin-3-yl)indolin-2-one] reads 0.1 to 1 µM; that for `Cc1sc2c(c1C)C(c1ccc(Cl)cc1)=N[C@@H](CC(=O)NCCOCCOCCC(=O)N1CCN(c3ccc(-c4ccc5c(c4)CC(=O)N5)cn3)CC1)c1nnc(C)n1-2` [Compound 120], 0.001 to 0.1 µM; that for `Cc1sc2c(c1C)C(c1ccc(Cl)cc1)=N[C@@H](CC(=O)NCCOCCOCCOCCNc1ccc(-c3ccc4c(c3)CC(=O)N4C)cn1)c1nnc(C)n1-2` [Compound 121, (S)-2-(4-(4-chlorophenyl)-2,3,9-trimethyl-6H-thieno[3,2-f][1,2,4]triazolo[4,3-a][1,4]diazepin-6-yl)-N-(2-(2-(2-(2-((5-(1-methyl-2-oxoindolin-5-yl)pyridin-2-yl)amino)ethoxy)ethoxy)ethoxy)ethyl)acetamide], 0.1 to 1 µM.
The result for `Cc1sc2c(c1C)C(c1ccc(Cl)cc1)=N[C@@H](CC(=O)N1CCC(N3CCN(c4ccc(-c5ccc6c(c5)CC(=O)N6)cn4)CC3)CC1)c1nnc(C)n1-2` [Compound 123, (S)-5-(6-(4-(1-(2-(4-(4-chlorophenyl)-2,3,9-trimethyl-6H-thieno[3,2-f][1,2,4]triazolo[4,3-a][1,4]diazepin-6-yl)acetyl)piperidin-4-yl)piperazin-1-yl)pyridin-3-yl)indolin-2-one] reads 0.001 to 0.1 µM; that for `Cc1sc2c(c1C)C(c1ccc(Cl)cc1)=N[C@@H](CC(=O)NCCNc1ccc(-c3ccc4c(c3)CC(=O)N4)cn1)c1nnc(C)n1-2` [Compound 124, (S)-2-(4-(4-chlorophenyl)-2,3,9-trimethyl-6H-thieno[3,2-f][1,2,4]triazolo[4,3-a][1,4]diazepin-6-yl)-N-(2-((5-(2-oxoindolin-5-yl)pyridin-2-yl)amino)ethyl)acetamide], 0.001 to 0.1 µM.
